Laboratory results reported in PMC12408761, “Impact of physical activity on ethoxy- and propoxypropanol human toxicokinetics in vivo” (Archives of Toxicology, 2025).
Like-named read-outs stand apart in the source and are kept apart here.

Legend:
[1] = Controlled human inhalation exposure (4 h in exposure chamber, at rest or with moderate physical activity): toxicokinetics in blood, urine and exhaled breath; assay type: in vivo; conditions: for Time at which Cmax was reached (Tmax): time after start of exposure; for average Cmax in exhaled breath: for a same concentration of exposure; for Time at which Cmax was reached: urine and exhaled breath; for Increase of urinary absorption rate with physical activity versus rest: first 2 h of exposure
Procedure: All exposure sessions were performed under controlled conditions at the Department of Occupational and Environmental Health, Center for Primary Care and Public Health (Unisanté), University of Lausanne, in Switzerland. PGEE or PGPE air concentrations were generated in a 12 m^3 exposure chamber (Guillemin [1975]) and monitored electronically (Lab VIEW software, National Instruments Corporation, Texas, USA) with a portable infrared spectroscopy gas analyzer for ambient air analysis (GASMET™ analyzer DX-4040 Gasmet Oy, Helsinki technologies, Finland) (Devanthery et al. [2003]; Tomicic et al. [2011]). During each exposure session, the participant spent 4 h inside the exposure chamber, and then 2 h outside in a solvent-free area. Each participant took part in four different exposure sessions comprising four different experimental conditions. Three sessions were performed at rest at either 25, 30, and 35 ppm of PGEE or 15, 20, and 25 ppm of PGPE. The fourth session was performed with moderate physical activity at 35 ppm of PGEE or 25 ppm of PGPE (Fig. 1).
The air concentrations were below the existing OEL for PGEE, i.e., 50 ppm. Given the absence of an OEL for PGPE, the chosen concentrations were previously tested to ensure odor tolerance for participants. The participants performed the physical activity at 1.5 W/kg on an ergonomic bicycle (Corival, Lode B.V., Groningen, The Netherlands) for 30 min twice during the same exposure session: the first without solvent exposure and the second with PGEE or PGPE. The physical activity design was adapted after discussion with sports science researchers from the University of Lausanne. A minimum of 48 h between two exposure sessions was determined to avoid possible cumulative exposure (Borgatta et al. [2022]). Blood, urine, and exhaled breath samples were collected before, during, and after all exposure sessions. The timing of sample collection was based on previous studies and protocol testing.
The blood samples were collected with an intravenous catheter inserted in the participant’s forearm by a research nurse into glass tubes (Vacutainers® NH Heparine Sodium, Becton Dickinson AG, Basel, Switzerland). A first blood sample was collected before the exposure session in a solvent-free area and used as baseline value. The timing following the first blood sample was 30, 120, 180, 240, 255, 300, and 360 min after the exposure to PGE started. The last blood sample was collected 24 h post-exposure. The blood samples were kept in the dark at 4 °C until analysis.
The participants were asked to provide a urine sample before the exposure session (solvent-free area, baseline) and then, every 2 h over 6 h. The participants continued to collect their urine (ad lib) samples at home for additional 24 h and bring them back in a cooler with cooling elements the day after the exposure session. They provided urine collection date, time, and total urinary volume. All urine samples were stored in polypropylene cups in the dark at 4 °C (Borgatta et al. [2021]). The cold storage is important to avoid any loss of substance as glycol ethers are volatile organic compounds.
The exhaled breath samples were collected using a non-invasive simple-to-use device for biological exposure monitoring of volatile organic compounds (BioVOC-2 Breath Sampler, Brechbühler, Schlieren, Switzerland). The last portion of expired breath (129 mL) was collected on thermal desorption (TD) tubes (Tenax® TA, Camsco, Böckten, Switzerland) from each participant. A first exhaled breath sample was collected before the exposure session in a solvent-free area (baseline). The timing following the first exhaled breath sample was 120, 240, 255, 260, 265, 270, 275 and 360 min after exposure had started and a last one 24 h post exposure. Exhaled breath samples were analyzed immediately after collection. […]

[2] = design: method as in Groeseneken et al. [1986], [1987]; conditions: humans; ref Groeseneken et al. [1986], [1987]; cited from earlier work
[3] = blood, at rest, 4 h inhalation, geometric mean ± SD
[4] = blood, physical activity, 35 ppm PGEE or 25 ppm PGPE, geometric mean ± SD
[5] = human, inhaled or intranasal, blood, at rest, 4 h inhalation (PGEE 25-35 ppm, PGPE 15-25 ppm), geometric mean ± SD
[6] = human, inhaled or intranasal, blood, at rest, 4 h inhalation, geometric mean ± SD, read-out: Cmax
[7] = human, inhaled or intranasal, urine, at rest, 4 h inhalation (PGEE 25-35 ppm, PGPE 15-25 ppm), geometric mean ± SD
[8] = human, inhaled or intranasal, urine, at rest, 4 h inhalation, geometric mean ± SD, read-out: Cmax
[9] = human, inhaled, blood, at rest, for a same concentration of exposure (25 ppm), read-out: average Cmax in blood
[10] = human, inhaled, blood, at rest, read-out: half-life in blood
[11] = human, inhaled, blood, physical activity (30 min, 1.5 W/kg), 35 ppm PGEE or 25 ppm PGPE, geometric mean ± SD
[12] = human, inhaled, blood, physical activity, 35 ppm PGEE or 25 ppm PGPE, geometric mean ± SD, read-out: Cmax
[13] = human, inhaled, exhaled breath, all exposure conditions, read-out: Half-life (converted)
[14] = human, inhaled, urine, physical activity (30 min, 1.5 W/kg), 35 ppm PGEE or 25 ppm PGPE, geometric mean ± SD
[15] = human, inhaled, urine, physical activity, 35 ppm PGEE or 25 ppm PGPE, geometric mean ± SD, read-out: Cmax
[16] = urine, at rest, 4 h inhalation, geometric mean ± SD
[17] = urine, physical activity, 35 ppm PGEE or 25 ppm PGPE, geometric mean ± SD

SMILES | Absorption (absorption rate) [1, 3] | Time at which Cmax was reached (Tmax) ([1]; blood, at rest) | Absorption (absorption rate) [1, 4] | Share of total blood uptake quantified in exhaled breath (AUC exhaled breath / AUC blood) ([1]; exhaled breath) | average Cmax in exhaled breath ([1]; exhaled breath, at rest) | AUC [1, 5] | Cmax [1, 6] | AUC [1, 7] | Cmax [1, 8] | Cmax [1, 9] | half-life [1, 10] | AUC [1, 11] | Cmax [1, 12] | half-life [1, 13] | AUC [1, 14] | Cmax [1, 15] | Time at which Cmax was reached ([1]; all conditions) | Absorption (absorption rate) [1, 16] | Increase of urinary absorption rate with physical activity versus rest ([1]; urine) | Absorption (absorption rate) [1, 17] | other results
CCOCC(C)O (centres unmarked) [PGEE, propylene glycol ethyl ether] | 0.013 ± 0 µg/mL/h*ppm | 240 min | 0.038 ± 0.004 µg/mL/h*ppm | less than 0.5% | 2.81 ± 0.76 ppm | 7320 ng·h/mL | 1070 ± 300 ng/mL | 5050 ng·h/mL | 1070 ± 210 ng/mL | 810 ± 80 ng/mL | 60 min | 16600 ng·h/mL | 2760 ± 260 ng/mL | 2.88 min | 8820 ng·h/mL | 1810 ± 470 ng/mL | at the end of exposure | 0.010 ± 0.002 µg/mL/h*ppm | 1.5 times | 0.014 ± 0.003 µg/mL/h*ppm | Blood concentration following PGEE exposure compared to PGPE ([1]; blood, same concentration of exposure (25 ppm)): 1.3 fold; half-life ([1]; human, inhaled, urine, all exposure conditions, read-out: Half-life (converted)): 78 min
CCOCCOC(C)=O [EGEEAc] | – | – | – | – | – | – | – | – | – | – | – | – | – | – | – | – | – | – | – | – | exhalation as share of the total uptake [2]: less than 0.4%
CCCOCC(C)O (centres unmarked) [PGPE, propylene glycol propyl ether] | 0.011 ± 0 µg/mL/h*ppm | 180 min | 0.024 ± 0.002 µg/mL/h*ppm | 1.1% | 2.25 ± 0.66 ppm | 2650 ng·h/mL | 500 ± 130 ng/mL | 1910 ng·h/mL | 450 ± 110 ng/mL | 650 ± 90 ng/mL | 54 min | 5130 ng·h/mL | 1230 ± 90 ng/mL | 2.28 min | 3090 ng·h/mL | 710 ± 140 ng/mL | at the end of exposure | 0.007 ± 0.0017 µg/mL/h*ppm | did not differ significantly | 0.0087 ± 0.0008 µg/mL/h*ppm | half-life ([1]; human, inhaled, urine, all conditions, read-out: urinary half-life): 54 min; Share of total blood uptake quantified in urine (AUC urine / AUC blood) ([1]; urine): 69.5%; half-life ([1]; urine, all exposure conditions): 54 min
CCOCCO [EGEE, ethylene glycol ethyl ether] | – | – | – | – | – | – | – | – | – | – | – | – | – | – | – | – | – | – | – | – | exhalation as share of the total uptake [2]: less than 0.4%
